Data on two compounds can be found in patent EP0103552B1, “Novel derivatives of guanine” (priority 1982, dated 1984).

Each structure is given as a SMILES string. Bounds are passed on as bounds.

One data set has as its system herpes simplex type 1. In words: plaque reduction assay, inhibition of virus multiplication in cell cultures. The settings on record: herpes simplex type 1 plaque on Vero cell mono-layers. It counts as cell-based. Here is the method: The inhibition of herpesvirus by VIS 590 and VSA 687 has been measured as plaque reduction according to the following procedure. The plaque reduction assay for herpes simplex type 1 was performed on Vero (Green Monkey Kidney) cells as described by Ejercito et al., J. Gen. Virol. 2 (1968) 357. Monolayers on 5 cm petri dishes were used and after virus adsorption the compounds to be tested were added to-the medium.

The next data set has as its system Vero cells. As to the kind of experiment: cellular toxicity, reduction in cell growth. Type of data set: cell-based, Green Monkey. The settings on record: at 100 µM. Here is the method:
(§1) The method used has been described by Stenberg (Biochemical Pharmacology, Vol. 30 (1980), 1005-1008). […] However, at this concentration, herpes virus multiplication was inhibited to more than 90% (see Table 1). Table 2. Cellular toxicity of VIS 590 expressed as percent reduction in cell growth after 48 h of incubation.

Data set [1] can be described thus: cellular toxicity, reduction in cell growth. Type of data set: cell-based, Green Monkey. The settings on record: monkey, vero cells; Conc. 100 µM; after 48 h of incubation; read-out: Percent reduction in growth of Vero cells, determined as cell number. Here is the method: as §1

In turn, `Nc1nc2c(ncn2CC(=O)C(O)CO)c(=O)[nH]1` (stereo not shown) [VSA 687, 9-(2-oxo-3,4-dihydroxybutyl)guanine] gave an Inhibition % in the data set on herpes simplex type 1 (Conc. 35 μ) of over 90%.

Turning to `Nc1nc2c(ncn2CC(=O)CCO)c(=O)[nH]1` [VIS 590, 9-(2-oxo-4-hydroxybutyl)guanine], the “effect on cell growth (in words)” value in the data set with Vero cells was “did not affect cell growth”. Besides, in data set [1], the inhibition at 48 h, 100 µM came to 0%. This compound also displayed an Inhibition % with herpes simplex type 1 (Conc. 10 μ) of 35%.
